Series [1] relates to HCV NS5A. The following applies: all patients with virologic failure in Panel 4.
For the next series, the system named is HCV GT1, 4, 5 and 6a/6b. Also on record: method as in PMID 24107072, PMID 24126581. The following applies: cited from earlier work.
Series [2] concerns organic anion transporting polypeptide (OATP) 1B1/3. The following applies: cited from earlier work.
The conditions of series [3]: cited from earlier work; for change in plasma concentrations on co-administration with JNJ-56914845: healthy volunteers, not considered clinically relevant.
Series [4] has as its system breast cancer resistance protein. The following applies: cited from earlier work.
The subject of series [5] is HCV NS5A. The arrangement: method as in PMID 24126581. The following applies: L31M and Y93C (in combination with M28V), GT1a; cited from earlier work.
Another series concerns P-glycoprotein. The conditions noted are these: cited from earlier work.
Another series concerns cytochrome P450 (CYP) 3A. The following applies: cited from earlier work.
Details of series [6]: species or system human. The following applies: in vivo. On the procedure:
Plasma pharmacokinetic samples for simeprevir, TMC647055, ritonavir and JNJ-56914845 were collected over 24 h (pre-dose, 1, 2, 3, 4, 5, 6, 8, 10, 12 and 24 h post-dose) at Week 4 from all patients and assayed using validated liquid chromatography-tandem mass spectrometry methods with lower limits of quantification for simeprevir, TMC647055, ritonavir and JNJ-56914845 of 5.0, 5.0, 2.0 and 1.0 ng/mL, respectively (data on file).
No formal sample size calculations were performed as this was a proof-of-concept study. For each efficacy endpoint, the proportion of patients was summarised descriptively together with a 95% confidence interval by treatment group and population. The change in log10 HCV RNA from baseline at all time points was calculated using descriptive statistics. Pharmacokinetic parameters were calculated using non-compartmental analysis (Phoenix WinNonlin® 6.2.1). All safety and tolerability data were summarised descriptively.

Another series relates to HCV GT1, 3, 4, 5 and 6. The arrangement: method as in PMID 24144360. The following applies: cited from earlier work.
For series [7], the system named is HCV replicon with NS5B NNI-1 pocket polymorphisms. Nature of the series: In vitro susceptibility of site-directed mutant replicons (baseline NS5B polymorphisms). The conditions noted are these: NS5B polymorphisms observed at baseline (positions 37, 392, 424, 425, 494, 499) with site-directed mutagenesis data. It counts as cell-based, hepatitis C virus. The text has this:
NS5B polymorphisms were detected at baseline at the non-nucleoside inhibitor (NNI)-1 binding pocket positions 37, 392, 424, 425, 494 and/or 499 across all panels.
A general note: In antiviral work, replicon cells carry a viral genome segment that copies itself.

Another series has as its system HCV NS5B. Nature of the series: Population-based sequencing at time of failure, NS5B region. The arrangement: species or system hepatitis C virus. The conditions noted are these: patients with virologic failure.
The subject of the next series is HCV NS3/4A. Briefly: Population-based sequencing at time of failure, NS3/4A region. Also on record: species or system hepatitis C virus.

We go through 4 molecules from publication PMC5303260, “Efficacy, safety and pharmacokinetics of simeprevir and TMC647055/ritonavir with or without ribavirin and JNJ-56914845 in HCV genotype 1 infection” (BMC Gastroenterology, 2017).

Where two headings read alike, the source gives them in different places.

For the molecule `COC(=O)N[C@H](C(=O)N1CCC[C@H]1c1ncc(-c2ccc(-c3ccc(-c4cnc([C@@H]5CC6(CN5C(=O)[C@@H](NC(=O)OC)C(C)C)OCCO6)[nH]4)cc3)cc2)[nH]1)C(C)C` [JNJ-56914845], the “emerging RAVs at time of failure” value in the series with HCV NS5A [1] is on record as “NS5A positions 30 and/or 31”. Further, the “in vitro antiviral activity” value in the series on HCV GT1, 4, 5 and 6a/6b was “in vitro antiviral activity against HCV GT1, 4, 5 and 6a/6b”. The OATP1B1/3 inhibition result in series [2] (in vitro, ref data on file) is given as “inhibits”. Further, the “increase in exposure (AUC0–24h) on co-administration of simeprevir” value in [3] (human, in vivo) is 2.6 fold. In series [4], the “breast cancer resistance protein inhibition” value was “inhibits”. Also, the “baseline NS5A polymorphisms and in vitro resistance” value with HCV NS5A [5] was “associated with in vitro resistance”. Further, in the series on P-glycoprotein, the P-glycoprotein inhibition result is listed as “inhibits” and the P-glycoprotein substrate status entry is recorded as “substrate”. For the same molecule, in the series with cytochrome P450 (CYP) 3A, the CYP3A substrate status entry is reported as “substrate”.
With `COc1ccc2c(c1)C=C1Cn3c-2c(C2CCCCC2)c2ccc(cc23)C(=O)NS(=O)(=O)N(C)CCOCCN(C)C1=O` [TMC647055], in [6], the “differences in pharmacokinetics based on ribavirin use” value (“differences in pharmacokinetics based” for short) is “No differences” and the “increase in exposure with dose” value is “more than dose-proportional increase”. The “in vitro antiviral activity” value in the series on HCV GT1, 3, 4, 5 and 6 is “in vitro antiviral activity against HCV GT1, 3, 4, 5 and 6”. Also, in [3], the “change in plasma concentrations on co-administration with JNJ-56914845” value is listed as “small increases”. Also, the “fold change in 50 % effective concentration compared to wild-type replicon” value in [7] is recorded as under 2. The “resistance-associated variants (RAVs) observed at failure” value with HCV NS5B is “NS5B position 495 (mainly P495L)”.
For the molecule `CC(C)c1nc(CN(C)C(=O)N[C@H](C(=O)N[C@@H](Cc2ccccc2)C[C@H](O)[C@H](Cc2ccccc2)NC(=O)OCc2cncs2)C(C)C)cs1` [ritonavir], the “differences in pharmacokinetics based” value in series [6] is “No differences”.
As for `COc1ccc2c(O[C@@H]3C[C@H]4C(=O)N[C@]5(C(=O)NS(=O)(=O)C6CC6)C[C@H]5/C=C\CCCCN(C)C(=O)[C@@H]4C3)cc(-c3nc(C(C)C)cs3)nc2c1C` [simeprevir], in [6], the “differences in pharmacokinetics based” value is on record as “No differences” and the “exposure compared with historical data for simeprevir 150 mg once daily” value is listed as “within the range observed in historical data”. In addition, the OATP1B1/3 inhibition entry in [2] is “inhibits”. Also, the “change in plasma concentrations on co-administration with JNJ-56914845” value in [3] is “small increases”. Also, the P-glycoprotein inhibition result in the series on P-glycoprotein was “inhibits”. Moreover, the “CYP3A substrate / inhibitor status” value with cytochrome P450 (CYP) 3A was “substrate and mild inhibitor (intestinal only)”. Moreover, the “emerging NS3 mutations at time of failure” value with HCV NS3/4A (GT1a-infected patients with virologic failure (R155K alone or with Q80R; R155S)) is “NS3 position 155”. Besides, in the series with HCV NS3/4A (most GT1b-infected patients with virologic failure), the “emerging NS3 mutation at time of failure” value is “NS3 position 168”.
